Measurements reported in ChEMBL document CHEMBL5131502, “Improving the treatment of Parkinson's disease: Structure-based development of novel 5-HT2A receptor antagonists/inverse agonists” (Eur J Med Chem, 2022).
≈ marks a conversion by molar mass, not a printed value.

Tests used:
[1] = Half life in Sprague-Dawley rat at 2 mg/kg, IG administered as single dose measured upto 24 hrs by LC-MS/MS analysis; assay type: ADME, organism-based; conditions: in vivo, po
[2] = Tmax in Sprague-Dawley rat at 2 mg/kg, IG administered as single dose measured upto 24 hrs by LC-MS/MS analysis; assay type: ADME, organism-based; conditions: in vivo, po
[3] = MRTlast in Sprague-Dawley rat at 4 mg/kg, IG administered as single dose measured upto 24 hrs by LC-MS/MS analysis; assay type: ADME, organism-based; conditions: in vivo, po
[4] = Half life in Sprague-Dawley rat at 4 mg/kg, IG administered as single dose measured upto 24 hrs by LC-MS/MS analysis; assay type: ADME, organism-based; conditions: in vivo, po
[5] = MRTlast in Sprague-Dawley rat at 2 mg/kg, IG administered as single dose measured upto 24 hrs by LC-MS/MS analysis; assay type: ADME, organism-based; conditions: in vivo, po
[6] = Tmax in Sprague-Dawley rat at 4 mg/kg, IG administered as single dose measured upto 24 hrs by LC-MS/MS analysis; assay type: ADME, organism-based; conditions: in vivo, po
[7] = Cmax in Sprague-Dawley rat at 4 mg/kg, IG administered as single dose measured upto 24 hrs by LC-MS/MS analysis; assay type: ADME, organism-based; parameters: dose 4 mg/kg, time < 24 hrs, route ig; conditions: in vivo, po
[8] = AUClast in Sprague-Dawley rat at 2 mg/kg, IG administered as single dose measured upto 24 hrs by LC-MS/MS analysis; assay type: ADME, organism-based; parameters: dose 2 mg/kg, time < 24 hrs, route ig; conditions: in vivo, po
[9] = Cmax in Sprague-Dawley rat at 2 mg/kg, IG administered as single dose measured upto 24 hrs by LC-MS/MS analysis; assay type: ADME, organism-based; parameters: dose 2 mg/kg, time < 24 hrs, route ig; conditions: in vivo, po
[10] = AUClast in Sprague-Dawley rat at 4 mg/kg, IG administered as single dose measured upto 24 hrs by LC-MS/MS analysis; assay type: ADME, organism-based; parameters: dose 4 mg/kg, time < 24 hrs, route ig; conditions: in vivo, po
[11] = Half life in Sprague-Dawley rat at 3 mg/kg, IG measured upto 24 hrs by LC-MS/MS analysis; assay type: ADME, organism-based; conditions: in vivo, po
[12] = AUClast in Sprague-Dawley rat at 3 mg/kg, IG measured upto 24 hrs by LC-MS/MS analysis; assay type: ADME, organism-based; parameters: time < 24 hrs, dose 3 mg/kg, route ig; conditions: in vivo, po
[13] = MRTlast in Sprague-Dawley rat at 3 mg/kg, IG measured upto 24 hrs by LC-MS/MS analysis; assay type: ADME, organism-based; conditions: in vivo, po
[14] = Tmax in Sprague-Dawley rat at 3 mg/kg, IG measured upto 24 hrs by LC-MS/MS analysis; assay type: ADME, organism-based; conditions: in vivo, po
[15] = Cmax in Sprague-Dawley rat at 3 mg/kg, IG measured upto 24 hrs by LC-MS/MS analysis; assay type: ADME, organism-based; parameters: dose 3 mg/kg, time < 24 hrs, route ig; conditions: in vivo, po
[16] = Apparent volume of distribution during terminal state in Sprague-Dawley rat at 3 mg/kg, IG measured upto 24 hrs by LC-MS/MS analysis; assay type: ADME, organism-based; conditions: in vivo, po, read-out: Vz/F
[17] = Drug metabolism in human assessed as AUC(0 to 24 hrs) for AC-279 metabolite at 80 mg/kg/day by UHPLC/FT-ICR-MS analysis; assay type: ADME, organism-based; parameters: time < 24 hr, dose 80 mg/kg/day; conditions: in vivo
[18] = Lipophilicity, logD of the compound at pH 7.4; assay type: physicochemical; conditions: buffer
[19] = Metabolic stability in Sprague-Dawley rat liver microsomes assessed as half life at 100 uM preincubated for 10 mins followed by NADPH addition by LC/MS analysis; assay type: ADME, Microsome
[20] = AUC(0 to 24 hrs) in mouse at 100 mg/kg by UHPLC/FT-ICR-MS analysis; assay type: ADME, organism-based; parameters: time < 24 hr, dose 100 mg/kg; conditions: in vivo
[21] = AUC(0 to 24 hrs) in monkey at 100 mg/kg by UHPLC/FT-ICR-MS analysis; assay type: ADME, organism-based, Macaca mulatta; parameters: time < 24 hr, dose 100 mg/kg; conditions: rhesus monkey, in vivo
[22] = Plasma protein binding in human at 10 uM; assay type: ADME, cell-free; conditions: read-out: PPB (converted)
[23] = Drug distribution in Sprague-Dawley rat brain at 6 micromol/kg administered via gavage measured after 6 hrs by LC-MS/MS analysis; assay type: ADME, tissue-based; conditions: in vivo, po, dose 6 µmol/kg
[24] = AUC(0 to 24 hrs) in human at 80 mg/kg/day by UHPLC/FT-ICR-MS analysis; assay type: ADME, organism-based; parameters: time < 24 hr, dose 80 mg/kg/day; conditions: in vivo
[25] = Drug metabolism in rat assessed as AUC(0 to 24 hrs) for AC-279 metabolite at 100 mg/kg by UHPLC/FT-ICR-MS analysis; assay type: ADME, organism-based; parameters: time < 24 hr, dose 100 mg/kg; conditions: in vivo
[26] = Drug metabolism in mouse assessed as AUC(0 to 24 hrs) for AC-279 metabolite at 100 mg/kg by UHPLC/FT-ICR-MS analysis; assay type: ADME, organism-based; parameters: time < 24 hr, dose 100 mg/kg; conditions: in vivo
[27] = Metabolic stability in human liver microsomes assessed as compound remaining at 100 uM […] followed by NADPH addition by LC/MS analysis; assay type: ADME, Microsome; conditions: read-out: Stability
[28] = biological target: Cytochrome P450 2D6 (Homo sapiens, UniProt P10635); experiment: Inhibition of CYP2D6 (unknown origin); assay type: ADME
[29] = Plasma protein binding in rat at 10 uM; assay type: ADME, cell-free; conditions: read-out: PPB (converted)
[30] = Dissociation constant, pKa of the compound; assay type: physicochemical
[31] = Plasma protein binding in monkey at 10 uM; assay type: ADME, cell-free, Macaca mulatta; conditions: rhesus monkey, read-out: PPB (converted)
[32] = Drug metabolism in rat assessed as AUC(0 to 24 hrs) for AC- 527 metabolite at 100 mg/kg by UHPLC/FT-ICR-MS analysis; assay type: ADME, organism-based; parameters: time < 24 hr, dose 100 mg/kg; conditions: in vivo
[33] = Metabolic stability in Sprague-Dawley rat liver microsomes assessed as intrinsic clearance at 100 uM preincubated for 10 mins followed by NADPH addition by LC/MS analysis; assay type: ADME, Microsome; conditions: read-out: CLH
[34] = Drug distribution in Sprague-Dawley rat brain at 6 micromol/kg administered via gavage measured after 0.5 hr by LC-MS/MS analysis; assay type: ADME, tissue-based; conditions: in vivo, po, dose 6 µmol/kg
[35] = biological target: Cytochrome P450 2C9 (Homo sapiens, UniProt P11712); experiment: Inhibition of CYP2C9 (unknown origin); assay type: ADME
[36] = Drug metabolism in monkey assessed as AUC(0 to 24 hrs) for AC-279 metabolite at 100 mg/kg by UHPLC/FT-ICR-MS analysis; assay type: ADME, organism-based, Macaca mulatta; parameters: time < 24 hr, dose 100 mg/kg; conditions: rhesus monkey, in vivo
[37] = Metabolic stability in human liver microsomes assessed as half life at 100 uM preincubated for 10 mins followed by NADPH addition by LC/MS analysis; assay type: ADME, Microsome
[38] = Aqueous solubility of compound at pH 7.4; assay type: physicochemical
[39] = Metabolic stability in Sprague-Dawley rat liver microsomes assessed as compound remaining at 100 uM […] followed by NADPH addition by LC/MS analysis; assay type: ADME, Microsome; conditions: read-out: Stability
[40] = Drug metabolism in rat assessed as AUC(0 to 24 hrs) for AC- 423 metabolite at 100 mg/kg by UHPLC/FT-ICR-MS analysis; assay type: ADME, organism-based; parameters: time < 24 hr, dose 100 mg/kg; conditions: in vivo
[41] = Drug metabolism in monkey assessed as AUC(0 to 24 hrs) for AC- 423 metabolite at 100 mg/kg by UHPLC/FT-ICR-MS analysis; assay type: ADME, organism-based, Macaca mulatta; parameters: time < 24 hr, dose 100 mg/kg; conditions: rhesus monkey, in vivo
[42] = Drug metabolism in human assessed as AUC(0 to 24 hrs) for AC- 423 metabolite at 80 mg/kg/day by UHPLC/FT-ICR-MS analysis; assay type: ADME, organism-based; parameters: time < 24 hr, dose 80 mg/kg/day; conditions: in vivo
[43] = biological target: Cytochrome P450 2C19 (Homo sapiens, UniProt P33261); experiment: Inhibition of CYP2C19 (unknown origin); assay type: ADME
[44] = Metabolic stability in human liver microsomes assessed as intrinsic clearance at 100 uM preincubated for 10 mins followed by NADPH addition by LC/MS analysis; assay type: ADME, Microsome; conditions: read-out: CLH
[45] = Drug metabolism in mouse assessed as AUC(0 to 24 hrs) for AC- 527 metabolite at 100 mg/kg by UHPLC/FT-ICR-MS analysis; assay type: ADME, organism-based; parameters: time < 24 hr, dose 100 mg/kg; conditions: in vivo
[46] = Drug distribution in Sprague-Dawley rat brain at 6 micromol/kg administered via gavage measured after 2 hrs by LC-MS/MS analysis; assay type: ADME, tissue-based; conditions: in vivo, po, dose 6 µmol/kg
[47] = Drug metabolism in monkey assessed as AUC(0 to 24 hrs) for AC- 527 metabolite at 100 mg/kg by UHPLC/FT-ICR-MS analysis; assay type: ADME, organism-based, Macaca mulatta; parameters: time < 24 hr, dose 100 mg/kg; conditions: rhesus monkey, in vivo
[48] = AUC(0 to 24 hrs) in rat at 100 mg/kg by UHPLC/FT-ICR-MS analysis; assay type: ADME, organism-based; parameters: time < 24 hr, dose 100 mg/kg; conditions: in vivo
[49] = biological target: T1, Cytochrome P450 1A2 (Homo sapiens, UniProt P05177); experiment: Inhibition of CYP1A2 (unknown origin); assay type: ADME
T1 sequence (P05177 whole entry): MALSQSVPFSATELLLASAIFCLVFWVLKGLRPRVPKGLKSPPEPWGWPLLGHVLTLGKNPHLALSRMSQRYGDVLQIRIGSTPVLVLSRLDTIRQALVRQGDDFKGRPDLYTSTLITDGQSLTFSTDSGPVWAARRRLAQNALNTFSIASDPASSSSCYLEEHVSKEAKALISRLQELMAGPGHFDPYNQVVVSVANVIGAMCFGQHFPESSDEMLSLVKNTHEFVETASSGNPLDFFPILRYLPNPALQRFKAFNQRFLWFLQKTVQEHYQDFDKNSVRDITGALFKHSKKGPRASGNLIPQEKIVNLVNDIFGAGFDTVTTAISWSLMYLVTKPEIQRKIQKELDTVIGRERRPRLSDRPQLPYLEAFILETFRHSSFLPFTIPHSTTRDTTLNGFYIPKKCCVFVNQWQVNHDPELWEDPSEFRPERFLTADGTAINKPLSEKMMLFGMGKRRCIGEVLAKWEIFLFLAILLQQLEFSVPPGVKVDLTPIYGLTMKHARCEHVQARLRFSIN

[50] = Metabolic stability in dog liver microsomes assessed as compound remaining at 100 uM […] followed by NADPH addition by LC/MS analysis; assay type: ADME, Canis lupus familiaris, Microsome; conditions: read-out: Stability
[51] = Drug metabolism in human assessed as AUC(0 to 24 hrs) for AC- 527 metabolite at 80 mg/kg/day by UHPLC/FT-ICR-MS analysis; assay type: ADME, organism-based; parameters: time < 24 hr, dose 80 mg/kg/day; conditions: in vivo

Cytochrome P450 2C19, sequence (P33261 whole entry): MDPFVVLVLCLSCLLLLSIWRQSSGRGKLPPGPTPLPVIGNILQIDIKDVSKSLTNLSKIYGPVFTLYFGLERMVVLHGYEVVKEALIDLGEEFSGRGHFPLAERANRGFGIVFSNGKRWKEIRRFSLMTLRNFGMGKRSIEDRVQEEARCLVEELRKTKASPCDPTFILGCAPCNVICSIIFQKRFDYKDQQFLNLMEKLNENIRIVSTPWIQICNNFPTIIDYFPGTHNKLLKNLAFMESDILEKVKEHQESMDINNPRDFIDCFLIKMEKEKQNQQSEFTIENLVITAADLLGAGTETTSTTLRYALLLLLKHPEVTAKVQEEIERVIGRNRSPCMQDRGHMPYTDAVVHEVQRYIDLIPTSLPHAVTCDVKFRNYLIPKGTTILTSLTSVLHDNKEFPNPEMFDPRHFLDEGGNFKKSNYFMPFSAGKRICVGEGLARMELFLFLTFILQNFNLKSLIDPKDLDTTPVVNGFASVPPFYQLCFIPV
Cytochrome P450 2C9, sequence (P11712 whole entry): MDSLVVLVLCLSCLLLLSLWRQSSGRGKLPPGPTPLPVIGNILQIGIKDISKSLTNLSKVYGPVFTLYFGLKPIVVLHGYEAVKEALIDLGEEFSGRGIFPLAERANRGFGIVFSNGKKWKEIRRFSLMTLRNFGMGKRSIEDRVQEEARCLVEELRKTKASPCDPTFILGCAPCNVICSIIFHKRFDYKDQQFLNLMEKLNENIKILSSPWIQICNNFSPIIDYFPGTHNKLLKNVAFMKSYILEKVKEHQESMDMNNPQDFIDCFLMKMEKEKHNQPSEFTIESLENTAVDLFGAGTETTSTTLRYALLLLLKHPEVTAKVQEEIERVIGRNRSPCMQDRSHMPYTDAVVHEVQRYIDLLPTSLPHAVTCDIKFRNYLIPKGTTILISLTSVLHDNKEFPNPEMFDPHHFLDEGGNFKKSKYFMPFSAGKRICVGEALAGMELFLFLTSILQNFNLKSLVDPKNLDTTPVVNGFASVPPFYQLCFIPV
Cytochrome P450 2D6, sequence (P10635 whole entry): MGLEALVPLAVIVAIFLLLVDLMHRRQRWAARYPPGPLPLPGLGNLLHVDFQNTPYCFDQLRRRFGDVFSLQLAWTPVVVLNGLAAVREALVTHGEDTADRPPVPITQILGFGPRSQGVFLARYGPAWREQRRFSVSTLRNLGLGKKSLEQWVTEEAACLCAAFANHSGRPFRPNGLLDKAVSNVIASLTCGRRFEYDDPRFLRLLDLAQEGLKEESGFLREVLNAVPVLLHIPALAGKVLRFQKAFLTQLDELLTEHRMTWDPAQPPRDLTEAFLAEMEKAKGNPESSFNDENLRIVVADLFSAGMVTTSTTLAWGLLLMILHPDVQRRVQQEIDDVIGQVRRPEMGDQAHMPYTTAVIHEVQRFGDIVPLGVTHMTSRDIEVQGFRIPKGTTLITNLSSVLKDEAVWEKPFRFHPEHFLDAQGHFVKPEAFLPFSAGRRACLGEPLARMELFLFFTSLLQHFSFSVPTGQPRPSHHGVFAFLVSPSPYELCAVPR

CN1CCC(N(Cc2ccc(F)cn2)C(=O)NCc2ccc(OCC(F)(F)F)cc2)CC1.O=C(O)C(O)C(O)C(=O)O
half-life [1]: 4.72 h
Tmax [2]: 0.9 h
MRT last at 24 h [3]: 6.03 h
half-life [4]: 4.44 h
MRT last at 24 h [5]: 6.3 h
Tmax [6]: 0.81 h
Cmax [7]: 174 nM
AUC(0-t) at 24 h [8]: 0.683 µM·h
Cmax [9]: 87.7 nM
AUC(0-t) at 24 h [10]: 1.22 µM·h

CC(C)COc1ccc(CNC(=O)N(Cc2ccc(F)cc2)C2CCN(C)CC2)cc1.O=C(O)C(O)C(O)C(=O)O
half-life [11]: 1.28 h
AUC(0-t) at 24 h [12]: 0.0786 µM·h
MRT last at 24 h [13]: 1.82 h
Tmax [14]: 0.5 h
Cmax [15]: 43.3 nM
Vd/F [16]: 0.155 L/kg

CC(C)COc1ccc(CNC(=O)N(Cc2ccc(F)cc2)C2CCN(C)CC2)cc1 [PIMAVANSERIN]
AUC [17]: 527 ng·h/mL
logD [18]: 2.78
half-life at 100 µM [19]: 1.78 h
AUC(0-t) at 24 h [20]: 4460 ng·h/mL
AUC(0-t) at 24 h [21]: 7730 ng·h/mL
fraction unbound at 10 µM [22]: 0.045
Ct [23]: 36 nmol/kg
AUC at 24 h [24]: 836 ng·h/mL
AUC [25]: 4320 ng·h/mL
AUC [26]: 8210 ng·h/mL
remaining at 100 µM [27]: 70.7%
IC50 [28]: > 100 µM
fraction unbound at 10 µM [29]: 0.037
pKa [30]: 8.44
fraction unbound at 10 µM [31]: 0.053
AUC [32]: 1976 ng·h/mL
CLint scaled at 100 µM [33]: 23.2 mL/min/kg
Ct [34]: 136 nmol/kg
IC50 [35]: > 100 µM
AUC [36]: 4800 ng·h/mL
half-life at 100 µM [37]: 1.96 h
solubility [38]: 21 µg/mL (≈ 49.1 µM)
remaining at 100 µM [39]: 68.5%
AUC [40]: 18577 ng·h/mL
AUC [41]: 2411 ng·h/mL
AUC [42]: 112 ng·h/mL
IC50 [43]: 49.8 µM
CLint scaled at 100 µM [44]: 11 mL/min/kg
AUC [45]: 388 ng·h/mL
Ct [46]: 171 nmol/kg
AUC [47]: 1289 ng·h/mL
AUC(0-t) at 24 h [48]: 3250 ng·h/mL
IC50 [49]: 52 µM
remaining at 100 µM [50]: 29.7%
AUC [51]: 236 ng·h/mL
